The values that follow come from patent US6683079B2, “3-(amino-or aminoalkyl) pyridinone derivatives and their use for the treatment of HIV related diseases” (Centre National de la Recherche Scientifique, priority 1998, dated 2004).

The subject of test [1] is HIV-1 strain 103 N. Description: Retrovirucidal effect on HIV-1 strain 103 N (Table 3). The test is classed as cell-based. The note with it: HIV-1 strain 103N (RT Lys-103 to Asn mutant); pIC50=-log IC50, IC50 in M. The method, then: (§1) HIV-1 viral suspensions were obtained by coculture of MT4 cells and H9 cells chronically infected by HIV-ILai isolate. 200 μl of a cell supernatant containing viral particles (HIV-ILai: 100 TCID50) were incubated at room temperature with various concentrations of different inhibitors. After 3 hours, virions were washed through 0.02 μm anopore membrane in 1.5 mL Vectaspin tube (Whatman) for 10 minutes at 5 000 g. Each of the three subsequent washes was performed in the same conditions after the viral concentrate was refilled with 500 μL of RPMI medium. Then, the viral concentrate was readjusted to the initial volume with RPMI plus 10% foetal calf serum (FCS). The residual infectivity was assayed on P4 cells as described by CHARNEAU et al. (1994, J. Mol. Biol., 241, 651-662). Briefly, P4 cells were plated using 100 μL of DMEM medium plus 10% FCS in 96 plate multi-wells at 20×10^5 cells per mL. After overnight incubation at 37° C., the supernatant was discarded and the viral preparation (200 μL) was added. One day later the wells were washed three times in PBS. Each well was refilled with 200 μL of a reaction buffer containing 50 mM Tris-HCl pH 8.5, 100 mM 2-mercaptoethanol, 0.05% Triton X-100 and 5 mM 4-methylumbelliferyl β-D-galactopyranoside (MUG). After 3 hours at 37° C., the level of the reaction was measured in a fluorescence microplate reader.
(§2) The retrovirucidal effect of each pyridinone derivative listed in table 3 has been assayed according to the teachings of example 2, excepted that the anti-viral effect has been tested on the two following HIV-1 strains:
b) HIV-1 strain 103 N which is a mutant strain bearing a point mutation in the reverse transcriptase gene leading to an enzyme wherein the initial Lys-103 residue is replaced for a Asn residue.
The HIV-1 103 N strain has also been described by SAHLBERG et al.,(1998, Antiviral Res., 37 (3): ASS) and BALZARiNI et al. (1996, Antimicrobial Agents and Chemotherapy, 40 (6): 1454-1466).

For test [2], the system named is HIV-1 strain IIIB. Description: Retrovirucidal effect on HIV-1 strain IIIB (Table 3). In kind it is cell-based. The note with it: pIC50=-log IC50, IC50 in M. The method, then:
as §1, §2
a) HIV-1 strain IIIB (see example 2);

Molecules are shown by their SMILES.

On to `CCc1c(C)[nH]c(=O)c(N(C)C)c1Cc1cc(C)cc(C)c1` [Compound 3], for which, in test [1], the “HIV1 pIC50 strain 103N” value is recorded as 7.438. Moreover, in test [2], the “HIV1 pIC50 strain IIIB” value came to 8.004.
On to `CCc1c(C)[nH]c(=O)c(NCc2cc(C)c(C)cc2OC)c1Cc1cc(C)cc(C)c1` [Compound 4], for which the “HIV1 pIC50 strain 103N” value in test [1] is on record as less than 4. Further, the “HIV1 pIC50 strain IIIB” value in test [2] turned out to be 5.094.
The like results for `CCc1c(C)[nH]c(=O)c(N)c1Cc1cc(C)cc(C)c1` [Compound 5] were, in that order, 5.636 and 6.261.
The corresponding values for `CCc1c(C)[nH]c(=O)c(N)c1C(O)c1cc(C)cc(C)c1` (stereo not drawn) [Compound 6] are 5.026 and 5.795.
The like results for `CCc1c(C)[nH]c(=O)c(N)c1Cc1ccc2ccccc2c1` [Compound 7] were, in that order, less than 4 and less than 4.
For the molecule `CCc1c(C)[nH]c(=O)c(N)c1Cc1ccc(C)cc1` [Compound 8], the “HIV1 pIC50 strain 103N” value in test [1] was determined as 4.39. In addition, the “HIV1 pIC50 strain IIIB” value in test [2] worked out at 4.373.
The corresponding values for `CCc1c(C)[nH]c(=O)c(N)c1Cc1cccc(C)c1` [Compound 9] are 5.103 and 5.373.
The like results for `CCc1c(C)[nH]c(=O)c(N(C)C)c1Cc1ccc2ccccc2c1` [Compound 10] were, in that order, 4.389 and 6.241.
For `CCc1c(Cc2cc(C)cc(C)c2)c(N(C)C)c(=O)n(C)c1C` [Compound 11], the “HIV1 pIC50 strain 103N” value in test [1] is given as 6.094. Moreover, the “HIV1 pIC50 strain IIIB” value in test [2] is 7.215.
The corresponding values for `CCc1c(C)[nH]c(=O)c(N(CC)CC)c1Cc1cc(C)cc(C)c1` [Compound 12] are 6.363 and 8.022.
With `CCc1c(C)[nH]c(=O)c(N(C)C)c1Cc1cccc(C)c1` [Compound 13], in test [1], the “HIV1 pIC50 strain 103N” value is given as 7.622. Further, the “HIV1 pIC50 strain IIIB” value in test [2] is on record as 8.824.
The like results for `CCc1c(C)[nH]c(=O)c(N(C)C)c1Cc1ccccc1C` [Compound 14] were, in that order, 5.849 and 7.676.
The like results for `Cc1cc(C)cc(Cc2cc[nH]c(=O)c2N)c1` [Compound 15] were, in that order, 4.138 and less than 4.17.
The corresponding values for `Cc1cc(C)cc(Cc2cc[nH]c(=O)c2N(C)C)c1` [Compound 16] are 4.401 and 5.061.
`CCCN(CCC)c1c(Cc2cc(C)cc(C)c2)c(CC)c(C)[nH]c1=O` [Compound 17]: the “HIV1 pIC50 strain 103N” value in test [1] turned out to be 4.379. Besides, in test [2], the “HIV1 pIC50 strain IIIB” value stood at 6.285.
Take `CCc1c(C)[nH]c(=O)c(N(C)C)c1Cc1ccc(C)cc1` [Compound 18]: the “HIV1 pIC50 strain 103N” value in test [1] was 4.895. Also, in test [2], the “HIV1 pIC50 strain IIIB” value was determined as 6.454.
Take `CCc1c(C)[nH]c(=O)c(N(C)C)c1Cc1ccc(C)c(C)c1` [Compound 19]: in test [1], the “HIV1 pIC50 strain 103N” value is recorded as 5.947. Besides, the “HIV1 pIC50 strain IIIB” value in test [2] is recorded as 7.447.
The corresponding values for `CCc1c(C)[nH]c(=O)c(N(C)C)c1Cc1cccc(C)c1C` [Compound 20] are 5.585 and 6.926.
The corresponding values for `CCc1c(C)[nH]c(=O)c(N(C)C)c1Cc1ccccc1` [Compound 21] are 6.65 and 8.409.
For `CCc1c(Cc2cc(C)cc(C)c2)c(N(C)C)c(=O)n(Cc2ccccc2)c1C` [Compound 22], in test [1], the “HIV1 pIC50 strain 103N” value was less than 4. Further, the “HIV1 pIC50 strain IIIB” value in test [2] came out at 4.603.
The corresponding values for `CCOC(=O)Cn1c(C)c(CC)c(Cc2cc(C)cc(C)c2)c(N(C)C)c1=O` [Compound 23] are less than 4 and 5.254.
For the molecule `CCCCN(CCCC)c1c(Cc2cc(C)cc(C)c2)c(CC)c(C)[nH]c1=O` [Compound 24], the “HIV1 pIC50 strain 103N” value in test [1] is reported as less than 4. Besides, in test [2], the “HIV1 pIC50 strain IIIB” value was 4.262.
The like results for `CCc1c(C)[nH]c(=O)c(N(Cc2ccccc2)Cc2ccccc2)c1Cc1cc(C)cc(C)c1` [Compound 25] were, in that order, 4.259 and less than 4.
The corresponding values for `CCc1[nH]c(=O)c(N)c(Cc2cc(C)cc(C)c2)c1C` [Compound 27] are 5.098 and 5.949.
The corresponding values for `CCc1[nH]c(=O)c(N(C)C)c(Cc2cc(C)cc(C)c2)c1C` [Compound 28] are 6.943 and 8.032.
Turning to `CCc1c(C)[nH]c(=O)c(NCc2ccccc2)c1Cc1cc(C)cc(C)c1` [Compound 29], in test [1], the “HIV1 pIC50 strain 103N” value turned out to be 5.496. Further, in test [2], the “HIV1 pIC50 strain IIIB” value was found to be 6.555.
In the case of `CCc1c(C)[nH]c(=O)c(N2CCCCC2)c1Cc1cc(C)cc(C)c1` [Compound 30], the “HIV1 pIC50 strain 103N” value in test [1] came out at 4.224. Moreover, the “HIV1 pIC50 strain IIIB” value in test [2] came out at 6.214.
The like results for `CCc1c(C)[nH]c(=O)c(N)c1Cc1ccc(C)cc1C` [Compound 31] were, in that order, less than 4 and less than 4.
The like results for `Cc1cc(C)cc(Cc2c(C)c(C)[nH]c(=O)c2N)c1` [Compound 32] were, in that order, less than 5 and 6.104.
As to `Cc1cc(C)cc(Cc2c(C)c(C)[nH]c(=O)c2N(C)C)c1` [Compound 33], the “HIV1 pIC50 strain 103N” value in test [1] was determined as 6.286. For the same molecule, in test [2], the “HIV1 pIC50 strain IIIB” value stood at 8.42.
The corresponding values for `CCc1c(C)[nH]c(=O)c(N(C)C)c1Cc1ccc(C)cc1C` [Compound 34] are less than 4 and 5.019.
The corresponding values for `CCc1c(C)[nH]c(=O)c(N(C)C)c1C(=O)c1cc(C)cc(C)c1` [Compound 35] are 7.987 and 8.585.
For the molecule `CCc1c(C)[nH]c(=O)c(N2CCOCC2)c1Cc1cc(C)cc(C)c1` [Compound 36], in test [1], the “HIV1 pIC50 strain 103N” value is less than 4. For the same molecule, the “HIV1 pIC50 strain IIIB” value in test [2] was found to be 6.763.
The like results for `CCc1c(C)[nH]c(=O)c(N(C)C)c1Cc1cc(C)ccc1C` [Compound 37] were, in that order, 5.729 and 6.796.
The like results for `CCc1c(C)[nH]c(=O)c(N(C)C)c1Cc1cc(F)cc(F)c1` [Compound 38] were, in that order, 7.402 and 8.155.
For `CCc1c(C)[nH]c(=O)c(N)c1Cc1cccc(Cl)c1` [Compound 39], the “HIV1 pIC50 strain 103N” value in test [1] stood at 4.751. Further, the “HIV1 pIC50 strain IIIB” value in test [2] is recorded as 5.
`CCc1c(C)[nH]c(=O)c(N(C)C)c1Cc1cccc(Cl)c1` [Compound 40]: the “HIV1 pIC50 strain 103N” value in test [1] came to 7.412. For the same molecule, the “HIV1 pIC50 strain IIIB” value in test [2] is listed as 8.585.
For the molecule `CCc1c(C)[nH]c(=O)c(N)c1Cc1cccc(F)c1` [Compound 41], in test [1], the “HIV1 pIC50 strain 103N” value is given as 4.473. Besides, the “HIV1 pIC50 strain IIIB” value in test [2] worked out at 5.131.
The corresponding values for `CCc1c(C)[nH]c(=O)c(N(C)C)c1Cc1cccc(F)c1` [Compound 42] are 7.18 and 8.569.
Consider `CCc1c(C)[nH]c(=O)c(N(C)C)c1Cc1cn(C)c2ccccc12` [Compound 43], for which the “HIV1 pIC50 strain 103N” value in test [1] amounted to 6.422. For the same molecule, in test [2], the “HIV1 pIC50 strain IIIB” value is given as 7.377.
On to `CCc1c(C)[nH]c(=O)c(N(C)C)c1Cc1cccnc1` [Compound 44], for which the “HIV1 pIC50 strain 103N” value in test [1] was 6.355. Also, in test [2], the “HIV1 pIC50 strain IIIB” value worked out at 7.889.
As to `CCc1c(Cc2cc(C)cc(C)c2)c(N(C)C)c(=O)n(CC)c1C` [Compound 45], in test [1], the “HIV1 pIC50 strain 103N” value came to 4.095. Moreover, in test [2], the “HIV1 pIC50 strain IIIB” value worked out at 5.519.
Consider `CCc1c(C)[nH]c(=O)c(NC)c1Cc1cc(C)cc(C)c1` [Compound 46], for which, in test [1], the “HIV1 pIC50 strain 103N” value is recorded as 7.034. Moreover, the “HIV1 pIC50 strain IIIB” value in test [2] was determined as 8.119.
The corresponding values for `CCCN(C)c1c(Cc2cc(C)cc(C)c2)c(CC)c(C)[nH]c1=O` [Compound 47] are 6.968 and 7.767.
The corresponding values for `CCc1c(C)[nH]c(=O)c(N(C)C)c1C(O)c1cc(C)cc(C)c1` (stereo not drawn) [Compound 48] are 6.711 and 8.
The corresponding values for `CCc1c(C)[nH]c(=O)c(N)c1Cc1ccc(-c2ccccc2)cc1` [Compound 49] are less than 5 and less than 4.
In the case of `CCc1c(C)[nH]c(=O)c(N)c1Cc1cccc(C(F)(F)F)c1` [Compound 50], in test [1], the “HIV1 pIC50 strain 103N” value is reported as less than 5. Further, the “HIV1 pIC50 strain IIIB” value in test [2] is reported as less than 5.
For the molecule `CCc1c(C)[nH]c(=O)c(N(C)C)c1Cc1ccc(-c2ccccc2)cc1` [Compound 51], in test [1], the “HIV1 pIC50 strain 103N” value is listed as less than 5. In addition, the “HIV1 pIC50 strain IIIB” value in test [2] is reported as 5.384.
